The results in this text go back to US10004701B2, “Methods and compositions for treating infection” (UNIVERSITY OF ROCHESTER, priority 2012, dated 2018).

Structures can show the parent of a compound that is named as a salt. Where two headings read alike, the source gives them in different places.

Holding throughout (test): AK assay 384-well format, Prestwick library screening
One test concerns E. coli. The class given is cell-based, Escherichia coli. The conditions noted are these: 50 μM final drug concentration; for fold induction at 50 µM: Escherichia coli, 3 h.
A further test has as its system E. faecium. In kind it is cell-based, Enterococcus faecium. The conditions noted are these: 50 μM final drug concentration; for fold induction at 50 µM: Enterococcus faecium, 3 h.
The next test relates to P. aeruginosa. The class given is cell-based, Pseudomonas aeruginosa. The following applies: 50 μM final drug concentration; for fold induction at 50 µM: Pseudomonas aeruginosa, 3 h.
Another test deals with E. cloacae. The class given is cell-based, Enterobacter cloacae. The following applies: 50 μM final drug concentration; for fold induction at 50 µM: Enterobacter cloacae, 3 h.
Test [1] relates to S. aureus strain USA300-0114. In kind it is cell-based, Staphylococcus aureus. The following applies: 50 μM final drug concentration; for fold induction at 50 µM: Staphylococcus aureus, USA300, 3 h.
Another test has as its system K. pneumoniae. In kind it is cell-based, Klebsiella pneumoniae. The following applies: 50 μM final drug concentration; for fold induction at 50 µM: Klebsiella pneumoniae, 3 h.
For test [2], the system named is A. baumannii strain 98-37-09. The class given is cell-based, Acinetobacter baumannii. The following applies: 50 μM final drug concentration; for fold induction at 50 µM: Acinetobacter baumannii, 983709, 3 h.
The mark [3] stands for this setting: planktonic, cutoff for positive-scoring molecules 3-fold increase, read-out: AK-based Prestwick Library Screening Results, E. coli (fold increase in extracellular AK activity).
The mark [4] stands for this setting: planktonic, cutoff for positive-scoring molecules 3-fold increase, read-out: AK-based Prestwick Library Screening Results, E. faecium (fold increase in extracellular AK activity).
The mark [5] stands for this setting: planktonic, cutoff for positive-scoring molecules 3-fold increase, read-out: AK-based Prestwick Library Screening Results, P. aeruginosa (fold increase in extracellular AK activity).
Where [6] appears, read: planktonic, cutoff for positive-scoring molecules 3-fold increase, read-out: AK-based Prestwick Library Screening Results, E. cloacae (fold increase in extracellular AK activity).
Where [7] appears, read: planktonic, cutoff for positive-scoring molecules 3-fold increase, read-out: AK-based Prestwick Library Screening Results, S. aureus (fold increase in extracellular AK activity).
[8] abbreviates: planktonic, cutoff for positive-scoring molecules 3-fold increase, read-out: AK-based Prestwick Library Screening Results, K. pneumoniae (fold increase in extracellular AK activity).
The mark [9] stands for this setting: planktonic, cutoff for positive-scoring molecules 3-fold increase, read-out: AK-based Prestwick Library Screening Results, A. baumannii (fold increase in extracellular AK activity).

For `CC(=O)OCC(=O)[C@H]1CC[C@H]2[C@@H]3CC[C@H]4C[C@H](O)CC[C@]4(C)[C@H]3C(=O)C[C@]12C` [Alfadolone acetate], the fold induction at 50 µM worked out at 1.2 in the test on E. coli (planktonic E. coli, […], read-out: AK-based Prestwick library screening result, E. coli (fold increase in extracellular AK activity)); 1.1 in the test on E. faecium (planktonic E. faecium, […], read-out: AK-based Prestwick library screening result, E. faecium (fold increase in extracellular AK activity)); 1 with P. aeruginosa (planktonic P. aeruginosa, […], read-out: AK-based Prestwick library screening result, P. aeruginosa (fold increase in extracellular AK activity)); 1.4 in the test on E. cloacae (planktonic E. cloacae, […], read-out: AK-based Prestwick library screening result, E. cloacae (fold increase in extracellular AK activity)); 1 in test [1] (planktonic S. aureus, […], read-out: AK-based Prestwick library screening result, S. aureus (fold increase in extracellular AK activity)); 0.9 in the test with K. pneumoniae (planktonic K. pneumoniae, […], read-out: AK-based Prestwick library screening result, K. pneumoniae (fold increase in extracellular AK activity)). The fold induction at 50 µM in test [2] (planktonic A. baumannii, […], read-out: AK-based Prestwick library screening result, A. baumannii (fold increase in extracellular AK activity)) came to 1.

For `Cc1cn([C@H]2C[C@H](N=[N+]=[N-])[C@@H](CO)O2)c(=O)[nH]c1=O` [Zidovudine, AZT], the “AK-based Prestwick Library Screening Results, E. coli (increase in extracellular AK activity)” value in the test with E. coli (planktonic E. coli, cutoff for positive-scoring molecules 3-fold increase) turned out to be 2.1. Moreover, the “AK-based Prestwick Library Screening Results, E. faecium (increase in extracellular AK activity)” value in the test on E. faecium (planktonic E. faecium, cutoff for positive-scoring molecules 3-fold increase) was determined as 0.9. In addition, in the test with P. aeruginosa (planktonic P. aeruginosa, cutoff for positive-scoring molecules 3-fold increase), the “AK-based Prestwick Library Screening Results, P. aeruginosa (increase in extracellular AK activity)” value stood at 0.6. In addition, in the test with E. cloacae (planktonic E. cloacae, cutoff for positive-scoring molecules 3-fold increase), the “AK-based Prestwick Library Screening Results, E. cloacae (increase in extracellular AK activity)” value was 4.2. Moreover, in test [1] (planktonic S. aureus, cutoff for positive-scoring molecules 3-fold increase), the “AK-based Prestwick Library Screening Results, S. aureus (increase in extracellular AK activity)” value was determined as 0.6. The “AK-based Prestwick Library Screening Results, K. pneumoniae (increase in extracellular AK activity)” value in the test with K. pneumoniae (planktonic K. pneumoniae, cutoff for positive-scoring molecules 3-fold increase) is 1.2. Further, in test [2] (planktonic A. baumannii, cutoff for positive-scoring molecules 3-fold increase), the “AK-based Prestwick Library Screening Results, A. baumannii (increase in extracellular AK activity)” value is 1.8.

Regarding `Cn1c(=O)c2[nH]cnc2n(C)c1=O` [Theophylline monohydrate], the fold induction at 50 µM in the test with E. coli ([…], read-out: AK-based Prestwick Library Screening Results, E. coli (fold increase in extracellular AK activity)) came to 1.2; in the test with E. faecium ([…], read-out: AK-based Prestwick Library Screening Results, E. faecium (fold increase in extracellular AK activity)) it was 1; with P. aeruginosa ([…], read-out: AK-based Prestwick Library Screening Results, P. aeruginosa (fold increase in extracellular AK activity)), 1.2; in the test on E. cloacae ([…], read-out: AK-based Prestwick Library Screening Results, E. cloacae (fold increase in extracellular AK activity)), 1.3; in test [1] ([…], read-out: AK-based Prestwick Library Screening Results, S. aureus (fold increase in extracellular AK activity)), 1.3; in the test with K. pneumoniae ([…], read-out: AK-based Prestwick Library Screening Results, K. pneumoniae (fold increase in extracellular AK activity)) it was 1.1. The fold induction at 50 µM in test [2] ([…], read-out: AK-based Prestwick Library Screening Results, A. baumannii (fold increase in extracellular AK activity)) amounted to 1.2.

As for `NS(=O)(=O)c1cc2c(cc1Cl)NC(C(Cl)Cl)NS2(=O)=O` (centres unmarked) [Trichlormethiazide], the fold induction at 50 µM with E. coli (setting [3]) was found to be 0.8; with E. faecium (setting [4]), 1.4; in the test on P. aeruginosa (setting [5]), 0.8; in the test on E. cloacae (setting [6]), 1.2; in test [1] (setting [7]) it was 1.3; in the test with K. pneumoniae (setting [8]), 0.8. In addition, the fold induction at 50 µM in test [2] (setting [9]) turned out to be 1.

For `C#C[C@]1(O)CC[C@H]2[C@@H]3CCC4=CC(=O)CC[C@]4(C)[C@H]3CC[C@@]21C` [Ethisterone], the fold induction at 50 µM came out at 1 in the test on E. coli (384-well format, […], read-out: AK-based Prestwick Library Screening Results, E. coli (increase in extracellular AK activity)); 0.9 with E. faecium (384-well format, […], read-out: AK-based Prestwick Library Screening Results, E. faecium (increase in extracellular AK activity)); 1 in the test with P. aeruginosa (384-well format, […], read-out: AK-based Prestwick Library Screening Results, P. aeruginosa (increase in extracellular AK activity)); 1.1 in the test with E. cloacae (384-well format, […], read-out: AK-based Prestwick Library Screening Results, E. cloacae (increase in extracellular AK activity)); 0.8 in test [1] (384-well format, […], read-out: AK-based Prestwick Library Screening Results, S. aureus (increase in extracellular AK activity)); 0.8 in the test on K. pneumoniae (384-well format, […], read-out: AK-based Prestwick Library Screening Results, K. pneumoniae (increase in extracellular AK activity)). In addition, the fold induction at 50 µM in test [2] (384-well format, […], read-out: AK-based Prestwick Library Screening Results, A. baumannii (increase in extracellular AK activity)) worked out at 0.9.

For the compound `C/C=C(/C(=C/C)c1ccc(O)cc1)c1ccc(O)cc1` [Dienestrol], the fold induction at 50 µM in the test on E. coli (cutoff for positive-scoring molecules 3-fold increase, read-out: AK-based Prestwick Library Screening Results, E. coli (fold increase in extracellular AK activity)) is 1.1; in the test on E. faecium (cutoff for positive-scoring molecules 3-fold increase, read-out: AK-based Prestwick Library Screening Results, E. faecium (fold increase in extracellular AK activity)), 1.3; in the test on P. aeruginosa (cutoff for positive-scoring molecules 3-fold increase, read-out: AK-based Prestwick Library Screening Results, P. aeruginosa (fold increase in extracellular AK activity)), 1.1; in the test on E. cloacae (cutoff for positive-scoring molecules 3-fold increase, read-out: AK-based Prestwick Library Screening Results, E. cloacae (fold increase in extracellular AK activity)) it was 21.9; in test [1] (cutoff for positive-scoring molecules 3-fold increase, read-out: AK-based Prestwick Library Screening Results, S. aureus (fold increase in extracellular AK activity)), 0.4; with K. pneumoniae (cutoff for positive-scoring molecules 3-fold increase, read-out: AK-based Prestwick Library Screening Results, K. pneumoniae (fold increase in extracellular AK activity)), 0.9. Also, the fold induction at 50 µM in test [2] (cutoff for positive-scoring molecules 3-fold increase, read-out: AK-based Prestwick Library Screening Results, A. baumannii (fold increase in extracellular AK activity)) amounted to 3.2.

With `NCC[C@H](O)C(=O)N[C@@H]1C[C@H](N)[C@@H](O[C@H]2O[C@H](CN)[C@@H](O)[C@H](O)[C@H]2O)[C@H](O)[C@H]1O[C@H]1O[C@H](CO)[C@@H](O)[C@H](N)[C@H]1O` [Amikacin hydrate], the fold induction at 50 µM with E. coli (planktonic, cutoff for positive 3-fold increase, read-out: AK-based Prestwick Library Screening Results, E. coli (fold increase in extracellular AK activity)) was 22.1; in the test with E. faecium (planktonic, cutoff for positive 3-fold increase, read-out: AK-based Prestwick Library Screening Results, E. faecium (fold increase in extracellular AK activity)), 1; with P. aeruginosa (planktonic, cutoff for positive 3-fold increase, read-out: AK-based Prestwick Library Screening Results, P. aeruginosa (fold increase in extracellular AK activity)), 14.2; in the test on E. cloacae (planktonic, cutoff for positive 3-fold increase, read-out: AK-based Prestwick Library Screening Results, E. cloacae (fold increase in extracellular AK activity)) it was 4.9; in test [1] (planktonic, cutoff for positive 3-fold increase, read-out: AK-based Prestwick Library Screening Results, S. aureus (fold increase in extracellular AK activity)), 1.3; with K. pneumoniae (planktonic, cutoff for positive 3-fold increase, read-out: AK-based Prestwick Library Screening Results, K. pneumoniae (fold increase in extracellular AK activity)) it was 6.2. Also, the fold induction at 50 µM in test [2] (planktonic, cutoff for positive 3-fold increase, read-out: AK-based Prestwick Library Screening Results, A. baumannii (fold increase in extracellular AK activity)) is 7.6.

For the compound `CCN(CC)C(C)CN1c2ccccc2Sc2ccccc21` (centres unmarked) [Ethopropazine hydrochloride], the fold induction at 50 µM worked out at 0.9 with E. coli (setting [3]); 0.9 in the test with E. faecium (setting [4]); 1 in the test with P. aeruginosa (setting [5]); 1.3 with E. cloacae (setting [6]); 0.7 in test [1] (setting [7]); 0.8 in the test with K. pneumoniae (setting [8]). The fold induction at 50 µM in test [2] (setting [9]) was found to be 1.
